Measured values as given in PMC12434521, “Characterization of Next-Generation Inhibitors for the Inward-Rectifier Potassium Channel Kir2.1: Discovery of VU6080824” (ACS Medicinal Chemistry Letters, 2025).

Key:
human Kir2.1 = target: T1, human Kir2.1 (Homo sapiens, UniProt P63252); test: Kir2.1 thallium flux assay; assay type: cell-based; conditions: for IC50 / Thallium Flux Potency IC50: T-REx-HEK-293 cells expressing human Kir2.1, 4PL fit, top concentration 30 μM; for IC50: read-out: Thallium Flux Potency IC50; for inhibition at 30 µM: compounds not fitting 4PL (> 10 μM): value at 30 μM relative to 30 μM ML133, read-out: Thallium Flux Efficacy (% Inhibition), 30 μM measured value; for Thallium Flux Efficacy (% Inhibition) / Emax: efficacy from 4PL fit, relative to ML133; for Emax: read-out: Thallium Flux Efficacy (% Inhibition)
T1 construct: expressed in transfected cells
T1 sequence (P63252 1-427): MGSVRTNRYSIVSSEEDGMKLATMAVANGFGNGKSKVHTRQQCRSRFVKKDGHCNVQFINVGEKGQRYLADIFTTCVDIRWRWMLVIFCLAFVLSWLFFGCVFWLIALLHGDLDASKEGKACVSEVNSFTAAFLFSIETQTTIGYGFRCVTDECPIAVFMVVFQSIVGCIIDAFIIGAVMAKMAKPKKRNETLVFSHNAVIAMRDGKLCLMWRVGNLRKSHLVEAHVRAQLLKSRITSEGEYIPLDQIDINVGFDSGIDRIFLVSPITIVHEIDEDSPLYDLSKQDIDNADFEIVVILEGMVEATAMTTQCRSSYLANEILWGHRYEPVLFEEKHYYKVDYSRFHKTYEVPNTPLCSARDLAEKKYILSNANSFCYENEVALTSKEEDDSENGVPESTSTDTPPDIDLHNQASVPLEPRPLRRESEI
Description: Thallium Flux Assay Experimental Conditions
The Tl+ flux assays were conducted as previously described with modifications optimized for Kir2.1 cell line as described below.1
Briefly, stable T-REx-HEK-293 cells expressing human K ir2.1 were cultured in DMEM growth medium (Catalog #11965-092, Gibco, Billings, MT) containing 10% heat-inactivated FBS (Catalog #16140, Gibco), 100 U/mL PenStrep, 5 μg/mL Blasticidin S, and 250 μg/mL Hygromycin.
The day prior to the experiment, cells at ~90% confluency were resuspended in plating media, which consisted of the same components as the growth media, except that heat-inactivated FBS was replaced with dialyzed FBS (Catalog #26400, Gibco). Tetracycline was added to the plating media to achieve a final concentration of 1 μg/ml to induce hKir2.1 expression. Cells were then counted and plated at 15,000 cells/well in black-walled, amine- or PDL- coated, 384-well plates at 20 μl/well (Corning, Corning, NY). On the day of experiment, the media was removed from the cell plate and replaced with 20 μl/well of Tl+-sensitive dye loading solution containing 2.5 μg/ml Thallos-AM (Catalog #11000-050, ION Biosciences, San Marcos, TX) in assay buffer using a Multidrop Combi dispenser (Thermo Fisher Scientific, Walkham, MA). Cell plates loaded with dye solution were incubated for 1 hour at room temperature. Following incubation, the cell plate was washed with HBSS assay buffer containing 20 mM HEPES using a BioTek ELx 405 TS plate washer (Agilent, Santa Clara, CA), leaving 20 μl of assay buffer in each well. The cell plate was then transferred to a Panoptic kinetic imaging plate reader (WaveFront Biosciences, Franklin, TN) for imaging at 1 Hz, 482/35 nm excitation and 536/40 nm emission for 10 seconds. Following this, 20 μl/well of HBSS assay buffer containing test compounds at 2-fold over their final concentrations were added and imaging continued for another eight minutes, after which 10 μl/well of chloride-free Tl+ stimulus solution was added (Catalog #11000-050, ION Biosciences). The final Tl2SO4 concentration in cell plate post-Tl+ stimulus solution addition was 0.25 mM. Images were collected for an additional two minutes. A ten-point concentration series from 30 μM to 2 nM with a 1:3 dilution factor was generated using an Echo liquid handler 650 (Labcyte, San Jose, CA). Final DMSO concentration, 0.3% (v/v) in the assay was constant across all compound concentrations.
The initial slopes of the Tl+-induced fluorescence changes were fit to a four-parameter logistic equation using our in-house software Waveguide to determine potency and efficacy values. […]
Bauer, J. A.; Days, E. L.; Lindsley, C. […]

[1] = Rat PK PBL cassette (i.v.); assay type: in vivo, Sprague-Dawley rat; conditions: Sprague-Dawley, iv, male SD rat, 0.2 mg/kg i.v. cassette
Description: While ML133 has found use as a Kir2.1 tool molecule across many disease models, the in vivo PK of this and related compounds within the dibenzylamine chemotype have not previously been characterized. As a highly efficient method for profiling the PK of a compound set, we therefore examined ML133 (alongside 9 additional next-generation Kir2.1 inhibitors) in our rat PK PBL cassette dosing platform (Table ). − From this experimental setup, administration of a 4-compound bolus dose, plus a standard control, can be used to determine a variety of PK parameters in a high-throughput fashion. Specifically, Sprague–Dawley (SD) rats were given 0.2 mg/kg of each Kir2.1 inhibitor (i.v. dosing, 4 compounds +1 control, total dose 1 mg/kg) with PK measured across set time points up to 24 h. Additionally, a separate cohort of animals was utilized to assess total plasma-brain levels (PBL, ratio reported as Kp) of compound at a 0.25 time point. In this fashion, standard plasma-based PK parameters (elimination t 1/2, […] (MRT), plasma clearance (CLp), and volume of distribution (Vss)) were measured alongside a parallel assessment of total brain exposure.
PK PBL Cassette Experimental Conditions
4 compounds plus one control were formulated as a solution in ethanol, PEG400, and DMSO (1:3:6 v/v, respectively) at a concentration of 1 mg/mL and administered as a single IV dose (1 mL/kg, 0.2 mg/kg per compound, total 1 mg/kg) to male, Sprague Dawley rats (n = 1) via injection into a surgically -implanted jugular vein catheter. Blood samples were collected serially from a surgically implanted carotid artery catheter in each animal over multiple post -administration time points (0.033, 0.117, 0.25, 0.5, 1, 2, 4, 7, and 24 hours) into chilled, K 2EDTA anticoagulant - fortified tubes and immediately placed on wet ice. The blood samples were then centrifuged (1700 rcf, 5 minutes, 4 °C) to ob tain plasma samples, which were stored at -80 °C until analysis […]
For determination of the brain over plasma ratio (K p), the same cassette of compounds plus control were formulated in ethanol, PEG400, and DMSO (1:3:6 v/v, respectively) and administered as a single IV dose (1 mL/kg, 0.2 mg/kg per compound, total 1 mg/kg) to male, Sprague Dawley rats ( n = 1) via injection into a surgically-implanted jugular vein catheter. At 15 min post dosing, blood sample was collected terminally into chilled, K 2EDTA anticoagulant-fortified tube and immediately placed on wet ice. The bloo d sample was then centrifuged (1700 rcf, 5 minutes, 4 °C) to obtain plasma sample. At the same post-administration time point, whole brain sample was obtained by rapid dissection, rinsed with PBS, and immediately frozen in individual tissue collection box (dry ice). All brain and plasma samples were stored at -80 °C until […]
Samples preparation for bioanalysis
Plasma samples from the in-life phase of the study were thawed at ambient temperature (benchtop), and then aliquots (20 µL per sample) were transferred to a 96-shallow-well (V-bottom) plate. Matrix-matched quality control (QC) samples and a standard curve of each analyte (1 mg/mL DMSO stock solution) were prepared in blank rat plasma (K2EDTA-treated) via serial dilution and transferred (20 µL each) to the plate along with multiple blank plasma samples. MeCN (120 µL) containing IS (10 nM carbamazepine) was added to each well of the plate to precipitate protein. The plate was then centrifuged (4000 rcf, 5 minutes, ambient temperature), and resulting supernatants (60 µL each) were transferred to a new 96-shallow-well (V-bottom) plate containing an equal volume (60 µL per well) of water (Milli-Q purified). The plate was then sealed in preparation for LC-MS/MS analysis.
Preparation of brain samples was identical to that of plasma samples except for the following modifications. While thawing, brains were weighed (inside their collection boxes using a universal empty collection box tare weight) and then subjected to mechanical homogenization […]

Row | SMILES | IC50 (human Kir2.1) [µM] | inhibition at 30 µM (human Kir2.1) [%] | Thallium Flux Potency IC50 (human Kir2.1) | Thallium Flux Efficacy (% Inhibition) (human Kir2.1) | further results
1 | Cc1cc(C)n(-c2ccc(CNCc3cccc4ccccc34)cc2)n1 [Compound 3e] | > 10 | 50 |  |  | 
2 | COc1ccc2c(c1)CCN(Cc1cccc3ccccc13)C2 [Compound 3g] |  |  | inactive | inactive | 
3 | COCCOc1ccc(CNCc2cccc3ccccc23)cc1 [Compound 3j] |  |  | inactive | inactive | 
4 | O=C1CCCN1c1ccc(CNCc2cccc3ccccc23)cc1 [Compound 3d] |  |  | inactive | inactive | 
5 | CP(C)(=O)c1ccc(CNCc2cccc3ccccc23)cc1 [Compound 3l] |  |  | inactive | inactive | 
6 | O=S1(=O)CCCN1c1ccc(CNCc2cccc3ccccc23)cc1 [Compound 3k] |  |  | inactive | inactive | 
7 | FS(F)(F)(F)(F)c1ccc(CNCc2cccc3ccccc23)cc1 [Compound 3c] |  |  | inactive | inactive | 
8 | OCc1ccc(CNCc2cccc3ccccc23)cc1 [Compound 3f] |  |  | inactive | inactive | 
9 | c1ccc2c(c1)CN(Cc1cccc3ccccc13)CCO2 [Compound 3h] |  |  | inactive | inactive | 
10 | FC(F)Oc1ccc(CNCc2cccc3ccccc23)cc1 [Compound 3a] | > 10 | 45 |  |  | 
11 | N#Cc1ccc(CNCc2cccc3ccccc23)cc1 [Compound 3b] | > 10 | 88 |  |  | 

The next lines start with results.

Row | IC50 (human Kir2.1) [µM] | inhibition at 30 µM (human Kir2.1) [%] | Thallium Flux Potency IC50 (human Kir2.1) | Thallium Flux Efficacy (% Inhibition) (human Kir2.1) | SMILES | further results
12 | > 10 | 75 |  |  | COc1ccc(CNCc2ccnc3ccccc23)cc1 [Compound 5e] | 
13 |  |  | inactive | inactive | COc1ccc(CNCc2cccc3ncccc23)cc1 [Compound 5d] | 
14 | 12.5 |  |  |  | COc1ccc(CNCc2ccc(-c3ccncc3)cc2)cc1 [Compound 5n] | Emax (human Kir2.1): 98%
15 | > 10 | 96 |  |  | COc1ccc(CNCc2ccc(N3CCCC3)cc2)cc1 [Compound 5v] | 
16 |  |  | inactive | inactive | COc1ccc(CNCc2ccc(N3CCOCC3)cc2)cc1 [Compound 5y] | 
17 | > 10 | 46 |  |  | COc1ccc(CNCc2ccc(N3CCCCCC3)cc2)cc1 [Compound 5x] | 
18 | > 10 | 90 |  |  | COc1ccc(CNCc2ccc(-c3ccccn3)cc2)cc1 [Compound 5l] | 
19 | 24.8 |  |  |  | COc1ccc(CNCc2cncc3ccccc23)cc1 [Compound 5b] | Fold less potent than ML133 in the thallium flux assay (human Kir2.1): approximately 2 fold; Emax (human Kir2.1): 140%; Kp at 0.25 h ([1]; brain and plasma, 0.25 time point (15 min post dosing), read-out: Kp (total brain to plasma ratio)): 1.05; AUC ([1]; plasma, n = 1, read-out: AUC): 183 ng·h/mL; clearance ([1]; plasma, n = 1, read-out: CLp): 18.2 mL/min/kg; half-life ([1]; plasma, n = 1, read-out: Elim. t1/2 (converted)): 17.4 min; MRT ([1]; plasma, n = 1, read-out: MRT): 21.6 min; Vd ([1]; plasma, n = 1, read-out: Vss): 0.39 L/kg
20 |  |  | inactive | inactive | COc1ccc(CNCc2ccc(N3CCCCS3(=O)=O)cc2)cc1 [Compound 5z] | 
21 |  |  | inactive | inactive | COc1ccc(CNCc2cccn3ccnc23)cc1 [Compound 5f] | 
22 | 10.7 |  |  |  | COc1ccc(CNCc2ccc(-c3ccccc3F)cc2)cc1 [Compound 5o] | Emax (human Kir2.1): 102%
23 |  |  | inactive | inactive | COc1ccc(CNCc2ccc(-c3cnn(C)c3)cc2)cc1 [Compound 5u] | 
24 | > 10 | 45 |  |  | COc1ccc(CNCc2cccc3cnccc23)cc1 [Compound 5c] | 
25 | > 10 | 53 |  |  | COc1ccc(CNCc2ccc(N3CCCCC3)cc2)cc1 [Compound 5w] | 
26 | 10.8 |  |  |  | COc1ccc(CNCc2ccc(-c3cccnc3)cc2)cc1 [Compound 5m] | Emax (human Kir2.1): 98%
27 |  |  | inactive | inactive | COc1ccc(CNCc2cccc3c2OC(F)(F)O3)cc1 [Compound 5g] | 
28 |  |  | inactive | inactive | COc1ccc(CNCc2nccc3ccccc23)cc1 [Compound 5a] | 
29 | 9.3 |  |  |  | COc1ccc(CNCc2ccc(-c3ccc(F)cc3)cc2)cc1 [Compound 5q] | Emax (human Kir2.1): 99%
